{"source": "patent US12076310B2", "about": "“Compounds and methods for the treatment of acute myelogenous leukemia” (University of Rochester, priority 2021, dated 2024)", "key": {"[1]": {"system": "MOLM13, MV411, THP1 and U937", "assay": "Colony formation of leukemia cell lines in MethoCult", "assay_type": "cell-based, human", "conditions": "6.25 μM", "protocol": "Effect of UR778Br on colony formation cell lines: MOLM13, MV411, THP1 and U937 were added to MethoCult H4435 Enriched (Stem Cell Technologies, catalog number 04435) to achieve concentration of 2000 cells/ml, 500 cells/ml and 200 cells/ml. UR778br was added to achieve a range of concentrations. Each condition was done in triplicate. The plates were incubated at 37° C. with 5% CO2 in a humidified incubator Colonies were counted at 7, 14 and 21 days."}, "[2]": {"system": "MOLM13, MV411, THP1 and U937 cells", "assay": "Proliferation of cell lines by counting cells in a hemocytometer", "assay_type": "cell-based, human", "conditions": "range of concentrations, 72 hours", "protocol": "Effect of UR778Br on proliferation of cell lines: Proliferation of MOLM13, MV411, THP1 and U937 cells was measured by counting cells in a hemocytometer. Briefly, cells were seeded at 20,000 to 40,000 cells/well in triplicate wells of a 96 well plate and treated with a range of UR778Br doses and incubated at 37° C. with 5% CO2 in a humidified incubator. Cell counts were determined at 24-, 48- and 72 hours."}, "[3]": {"system": "MOLM13, MV411, THP1 and U937 cells", "assay": "Cell cycle analysis by flow cytometry", "assay_type": "cell-based, human", "conditions": "range of concentrations, 24 hours", "protocol": "Cell cycle analysis: For cell cycle analysis, Leukemia cell lines were washed with 1× phosphate buffered saline (PBS Mediatech, Inc., Manassas, VA, USA) and centrifuged at 1200 rpm for 8 minutes. Cell pellet was re-suspended in 100 microliters of Cytofix/Cytoperm™ (BD Biosciences, Cat No. 554722) buffer for at room temperature (RT) for 15 minutes. Cell suspension washed with 1×PBS and centrifuged at 1200 rpm for 8 minutes and re-suspended in 1 ml of culture media containing 1 μl of Vybrant® DyeCycler™ Violet Stain (ThermoFisher Scientific, Cat No. V35003). Cell suspensions were incubated at 37° C. in a 5% CO2 incubator for least 30 minutes. Cell suspensions were analyzed using a LSRII™ flow cytometer (BD Biosciences, San Jose, CA, USA). A minimum of 8,000 cells were included in the analysis of each sample. Data were analyzed by FlowJo software (Tree Star, Ashland, OR, USA) and collected on linear scale for forward and side scatter (i.e., FSC and SSC, respectively) and on a linear scale for violet fluorescence channel […]."}, "[4]": {"system": "normal bone marrow cells", "assay": "Colony formation by normal bone marrow in MethoCult", "assay_type": "cell-based, human", "protocol": "Effect of UR778Br on colony formation by normal bone marrow: Vials of cryopreserved aliquots were thawed the in a 37° C. water bath. Nine ml of RPMI with 2% FBS were added dropwise to the cells in 1 ml of freezing media, centrifuged at 1000 rpm for 5 min and re-suspended in 5 ml of RPMI. The cells were counted in a hemocytometer and viability estimated by Trypan blue dye exclusion. The cells were added to MethoCult H4435 Enriched (Stem Cell Technologies, catalog number 04435) to achieve concentrations of 5×10^4 to 1×10^5 viable cells/ml. UR778Br was added at indicated concentrations. The mixture was vortexed and allowed to settle. Each condition was dispersed in triplicate or quadruplicate. The plates were incubated at 37° C. with 5% CO2 in a humidified incubator and colonies were counted at 7, 14 and 21 days. Images of colony forming unit assays were acquired using the Celligo imaging cytometer (Nexcelom Biosciences) at a resolution of 1 pixel/μm. Celligo instrument software was used for image processing."}, "[5]": {"system": "primary AML cells", "assay": "Clonogenicity of primary AML cells in MethoCult", "assay_type": "cell-based, human", "protocol": "Effect of UR778Br on clonogenicity of primary AML cells: Vials of primary AML cells cryopreserved in liquid nitrogen were thawed rapidly in a 37° C. water bath. The contents, generally one ml, were transferred to a 15 ml conical tube, one tenth the volume of DNase was added (bovine pancreas deoxyribonuclease, Sigma Aldrich D4263-5VL), it was mixed gently and incubated in a 37° C. water bath for 90 seconds. 9 ml of DMEM with 2% FBS was added dropwise and mixed gently. Samples were then centrifuged for 5 to 6 minutes, aspirated and the supernatant discarded. 70 μl of DNase were added and mixed gently. 10 ml of DMEM with 2% FBS was added slowly to resuspend and then the sample was centrifuged for 5 to 6 minutes. Supernatant was discarded, 50 μl of DNase was added, sample was mixed gently and the pellet was resuspended in 5 ml of IMDM+10% FBS, L-glutamine 2 mM (GIBCO) and penicillin and streptomycin (50 units and 50 mcg/ml). The cells were counted in a hemocytometer with viability estimated by Trypan blue dye exclusion.\nThe cell suspension was then added to MethoCult Enriched H4435 (Stem Cell Technologies, catalog number 04435) to achieve a final concentration between 5×10^4 to 2×10^5/ml. DMSO, UR778Br or cytarabine were added to achieve indicated concentrations. […] The plates were incubated 37° C., 5% CO2 incubator and colonies were counted at 7, 14 and 21 days. […]"}, "[6]": {"system": "IQGAP1", "assay": "IQGAP1 expression in MOLM13 cells (immunoblot)", "assay_type": "cell-based, human", "conditions": "25 μM, 24 hours"}, "[7]": {"system": "MOLM13, MV411, THP1 and U937", "assay": "Viability of cell lines by the MTS assay", "assay_type": "cell-based, human", "conditions": "range of concentrations, 48 hours", "protocol": "Effect of UR778Br on viability of cell lines: Viability of MOLM13, MV411, THIP1 and U937 was determined by the MTS assay. Briefly, 20,000 to 40,000 cells/well were seeded in triplicate wells of a 96 well plate and treated with a range of UR778Br doses and incubated for 48 to 72 hours at 37° C. with 5% CO2 in a humidified incubator. Cell Titre96R Aqueous One Solution Cell Proliferation Assay reagent (Promega Corp., catalog number: G3580) diluted 1-10 in complete RPMI medium was added and cells were incubated for 4 hours. The optical density (OD) values were read at 490 nm wavelength using BioRad iMark microplate reader. Experiments were performed in triplicates; data are expressed as the mean of the triplicate determinations (X±SD) of a representative experiment in % of absorbance by samples with untreated cells [=100%]."}, "[8]": {"system": "MOLM13, MV411, THP1 and U937 cells", "assay": "Apoptosis by Western blot of cleaved PARP", "assay_type": "cell-based, human", "conditions": "25 μM, 24 hours", "protocol": "For measurement of apoptosis by Western blot the MOLM13, MV41, THP1 and U937 cells treated with UR778Br for 24 hours were lysed and expression of cleaved PARP, an indicator of apoptosis, was measured as described above."}, "[9]": {"system": "leukemia cell lines", "assay": "Screening of hits and structural analogs for effects on proliferation of leukemia cell lines", "assay_type": "cell-based, human", "conditions": "dose range tested; data not shown"}, "[10]": {"system": "primary human AML cells", "assay": "Viability of primary AML cells (annexin-V/DAPI flow cytometry)", "assay_type": "cell-based", "conditions": "dose range, 48 hours", "protocol": "Effect of UR778Br on apoptosis in primary AML cells: Primary AML cells were treated with DMSO or varying concentrations of UR778Br and cytarabine 5 μM and cultured in a 37° C., 5% CO2 incubator for 24 and 48 hours. The cells were stained for 15 min in annexin-V binding buffer (10 mM HEPES/NaOH, pH 7.4, 140 mM NaCl, 2.5 mM CaCl2)) containing annexin-V-APC antibody (BD Biosciences) and DAPI (Sigma). Stained cells were analyzed immediately on using a LSRII™ flow cytometer (BD Biosciences, San Jose, CA, USA).\nEffect of UR778Br on viability of primary human AML cells: Vials of primary AML cells cryopreserved in liquid nitrogen were thawed rapidly in a 37° C. water bath. The contents, generally one ml, were transferred to a 15 ml conical tube, one tenth the volume of DNase was added (bovine pancreas deoxyribonuclease, Sigma Aldrich D4263-5VL), it was mixed gently and incubated in a 37° C. water bath for 90 seconds. 9 ml of DMEM with 2% FBS was added dropwise and mixed gently. Samples were then centrifuged for 5 to 6 minutes, aspirated and the supernatant discarded. […] The cells were counted in a hemocytometer with viability estimated by Trypan blue dye exclusion.\nPrimary cells were cultured in 37° C., 5% CO2 incubator. […] Stained cells were analyzed immediately on BD FACS Celesta, flow cytometer (BD Biosciences). Viable cells were scored as annexin-V and DAPI double negative cells."}}, "note": "“Also recorded” adds a separate entry of the source."}
{"smiles": "CCCCN1C(=O)C(O)(CC(=O)c2ccccc2O)c2cc(Br)ccc21", "note": "(stereo not shown) [UR778Br]", "values": [{"measurement": "colony formation units", "setting": "[1]", "result": "suppress clonogenic progenitors; also recorded: inhibition of the colony formation units"}, {"measurement": "proliferation", "setting": "[2]", "result": "dose dependent reduction of proliferation"}, {"measurement": "cell cycle arrest", "setting": "[3]", "result": "cell cycle arrest in the G2M phase in a dose-dependent manner; also recorded: dose-dependent arrest in G2/M phase of the cell cycle"}, {"measurement": "colony formation by normal bone marrow", "setting": "[4]; 6.25 μM", "result": "did not inhibit colony formation by normal bone marrow; also recorded: majority of normal bone marrow samples do not exhibit reduced colony formation"}, {"measurement": "colony formation by normal primary bone marrow cells", "setting": "[4]; 12.5 μM compared with 6.25 μM", "result": "inhibition of the colony formation units to a greater degree than at 6.25 μM concentration"}, {"measurement": "colony formation by three primary AML cells", "setting": "[5]; concentrations as low as 6.25 μM", "result": "blocks colony formation"}, {"measurement": "colony formation units of primary AML cells", "setting": "[5]; varying concentrations", "result": "inhibition of the colony formation units"}, {"measurement": "expression of IQGAP1", "setting": "[6]", "result": "decreased expression of IQGAP1"}, {"measurement": "viability", "setting": "[7]", "result": "decreased viability in AML cell lines in a dose-dependent fashion; also recorded: dose-dependent decrease in viability"}, {"measurement": "apoptosis (expression of cleaved PARP)", "setting": "[8]", "result": "apoptosis in MOLM13 cells"}, {"measurement": "apoptosis (expression of cleaved PARP)", "setting": "[8]; listed as UR778B2", "result": "apoptosis in the four cell lines"}, {"measurement": "inhibition of proliferation of leukemia cells (anti-proliferative activity)", "setting": "[9]", "result": "most potent structural analog of AK778"}, {"measurement": "viability (annexin-V and DAPI double negative cells)", "setting": "[10]", "result": "dose dependent decrease in viability"}]}
